Assay results: PubChem BioAssay (NCI)
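Dose response: 5 concentrations. Exposure: 48 h. Format: 96-well plates. Endpoint: linear interpolation; highest concentration if not reached. Abbreviation: GI50, concentration required for 50% inhibition of growth. TGI: total growth inhibition.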

Assays:
Assay in all cases: DTP human tumour cell line panel, 48 h
DU-145 prostate = tested on: DU-145 prostate
KM12 colon = tested on: KM12 colon
MCF7 breast = tested on: MCF7 breast
MDA-MB-231 breast = tested on: MDA-MB-231 breast
NCI-H23 lung = tested on: NCI-H23 lung
OVCAR-5 ovarian = tested on: OVCAR-5 ovarian
OVCAR-8 ovarian = tested on: OVCAR-8 ovarian
SW-620 colon = tested on: SW-620 colon
COLO 205 colon = tested on: COLO 205 colon
MDA-N = tested on: MDA-N

| SMILES | TGI (DU-145 prostate) [µM] | TGI (KM12 colon) [µM] | TGI (MCF7 breast) [µM] | TGI (MDA-MB-231 breast) [µM] | TGI (NCI-H23 lung) [µM] | TGI (OVCAR-5 ovarian) [µM] | TGI (OVCAR-8 ovarian) [µM] | TGI (SW-620 colon) [µM] | GI50 (DU-145 prostate) [µM] | GI50 (KM12 colon) [µM] | GI50 (MDA-MB-231 breast) [µM] | GI50 (NCI-H23 lung) [µM] | GI50 (OVCAR-5 ovarian) [µM] | GI50 (OVCAR-8 ovarian) [µM] | GI50 (SW-620 colon) [µM] | TGI (COLO 205 colon) [µM] | TGI (MDA-N) [µM] |
| --- | --- | --- | --- | --- | --- | --- | --- | --- | --- | --- | --- | --- | --- | --- | --- | --- | --- |
| CC(C)(CC1(C)NC(=O)NC1=O)OCc1ccccc1 (stereo not given) | > 100 | > 100 | > 100 | > 100 | > 100 | > 100 | > 100 | > 100 | – | – | – | – | – | – | – | – | – |
| CCN(CC)C(=S)SSCCO | > 100 | 30.1 | – | 30.3 | 31.5 | 31.5 | 38.7 | 26.5 | 37.8 | 15 | 15.3 | 16.4 | 17.7 | 19.3 | 13.6 | – | – |
| CCOC(=O)C(C)(Cc1ccc(O)cn1)NC(=O)c1ccccc1 (stereo not given) | > 100 | > 100 | – | > 100 | > 100 | > 100 | > 100 | > 100 | – | – | – | – | – | – | – | > 100 | > 100 |
| O=C(O)Cc1ccc(Oc2nc3ccccc3nc2-c2ccccc2)cc1 | > 100 | > 100 | > 100 | > 100 | > 100 | > 100 | > 100 | > 100 | – | – | – | – | – | – | – | > 100 | – |
| O=C1NC2=NN=C(c3ccc(Br)cc3)CN2NC12c1ccccc1-c1ccccc12 | > 100 | – | > 100 | > 100 | > 100 | > 100 | > 100 | > 100 | – | – | – | – | – | – | – | > 100 | > 100 |
| Cc1cc(OC(=O)c2c(C)cc(OC(=O)c3c(C)cc(O)cc3O)cc2O)cc(O)c1C(=O)O | – | > 100 | – | – | > 100 | > 100 | > 100 | > 100 | – | – | – | – | – | – | – | > 100 | – |
| Nc1ncnc2c1ncn2CCOC(c1ccccc1)P(=O)(O)O (stereo not given) | – | > 100 | – | – | > 100 | > 100 | > 100 | > 100 | – | – | – | – | – | – | – | > 100 | – |
| O=C(/C=C/c1cccs1)c1ccc([N+](=O)[O-])cc1 | > 100 | > 100 | > 100 | > 100 | > 100 | – | > 100 | > 100 | – | – | – | – | – | – | – | > 100 | > 100 |
| COc1cc(S(=O)(=O)Nc2ccc(-c3csc(/N=C\c4cccs4)n3)cc2)ccc1Cl | > 100 | – | 48.5 | > 100 | > 100 | > 100 | > 100 | > 100 | – | – | – | – | – | – | – | > 100 | > 100 |
| O=C([O-])C1([n+]2c(-c3ccccc3)cc(-c3ccccc3)cc2-c2ccccc2)CC1 | > 100 | – | > 100 | – | > 100 | > 100 | > 100 | > 100 | – | – | – | – | – | – | – | – | > 100 |
| CCN(CC)C(=S)S | – | > 100 | – | – | – | > 100 | > 100 | > 100 | – | – | – | – | – | – | – | > 100 | – |
| CC(=O)O[C@H]1C[C@@H](OC(C)=O)[C@@](C)(O)[C@@H]2[C@@H](OC(C)=O)[C@@]3(O)[C@H](/C=C(/CCl)[C@H]4O[C@H]4[C@@H](OC(C)=O)[C@@]12C)OC(=O)[C@@H]3C | > 25 | > 25 | – | > 25 | > 25 | > 25 | > 25 | > 25 | – | – | – | – | – | – | – | > 25 | > 25 |
